Measured values taken from patent publication US20030068613A1, “Method for studying regeneration in biological material” (priority 2000, published 2003).

Test system: organotypic cortical co-cultures
Experiment: Correlated activity (regeneration of functional connections) in organotypic cortical co-cultures on micro-electrode arrays
Assay type: cell-based, Wistar rats
Conditions: 50 nM in culture medium from 0 DIV, re-administered with each medium change up to 14 DIV; after 14 days in vitro; n=18; untreated control ca. 60% (n=28)
Experimental: Organotypic cortical co-cultures (350-425 μm thick from the neocortex) were prepared from three-day-old to seven-day-old Wistar rats of both sexes and were maintained in vitro using the roller tube technique; on this point see Gähwiler, Organotypic Monolayer Cultures of Nervous Tissue, J. NEUROSCIENCE METHODS, 1981, volume 4, pages 329-342. The co-cultures were allowed to grow for up to 35 days either on glass cover plates or on micro-electrode arrays in medium which contained 50% Eagle's basic medium, 25% Hanks-buffered saline solution, 25% horse serum, 33 mM D-glucose and 1 mM L-glutamine. The medium was replaced twice a week, and the co-culture explants were positioned relative to one another with varied orientations and varied distances (0 to 500 μm).
The explants cultured on micro-electrode arrays were recorded at different times for spontaneous electrical activity, at the earliest after 4 DIV (days in vitro) and at the latest 35 DIV in normal culture medium at a temperature of 35° C. Using a multi-channel recording system, the 60 micro-electrodes could be recorded simultaneously, as a result of which it was possible to test correlated activity in the co-cultures. […] The electrodes had impedances of 100 to 300 kΩ (at 1 kHz), a spacing of 500 μm and a diameter of 10 μ. The activity was recorded at 10 to 25 kHz per channel, stored, and analyzed offline in respect of latency. […]

With `C=CC[C@@H]1/C=C(\C)C[C@H](C)C[C@H](OC)[C@H]2O[C@@](O)(C(=O)C(=O)N3CCCC[C@H]3C(=O)O[C@H](/C(C)=C/[C@@H]3CC[C@@H](O)[C@H](OC)C3)[C@H](C)[C@@H](O)CC1=O)[C@H](C)C[C@@H]2OC` [FK506] as the molecule, how does the “correlated activity (share of explants showing correlation)” value read?
Its value is about 90%.
